Data taken from patent US8088918B2, “Noncardiotoxic pharmaceutical compounds” (Williamsburg Holdings LLC, priority 2004, dated 2012).

Assays:
recombinant human CYP3A4 = target: T1, recombinant human CYP3A4 (Homo sapiens, UniProt P08684); experiment: Metabolic stability in the presence of CYP3A4 isozyme; format: in vitro ADME; conditions: 10 μm compound
T1 construct: purchased BD Gentest (Woburn, Mass.)
Experimental: (§1) The metabolic stability of each compound prepared in Examples 1-5 was assessed in the presence of CYP2D6 and CYP3A4 obtained from BD Gentest (Woburn, Mass.).
(§2) The metabolic stability of each compound prepared in Examples 1-5 was assessed in duplicate by incubation of 10 μm compound with recombinant human CYP2D6 and 3A4 using similar conditions to those in Example 9. Samples were removed for analysis at 0, 30 and 60 minutes and extracted with one volume of organic solvent. Appropriate controls were included. Quantification of the disappearance of the prodrug was conducted LC-MS. Appearance of metabolites was also monitored.

[1] = Stability testing in simulated gastric fluids; conditions: 10 μM, saline pH approximately 1 plus pepsin
[2] = Stability testing of prodrugs in rat plasma (elevated esterase activity); format: in vitro ADME, Sprague-Dawley rat; conditions: 10 μM, ca. 37° C.
Experimental: Sprague-Dawley rat plasma was obtained by collection into sodium EDTA as the anticoagulant, and was stored at ca −20° C. prior to use. Prior to use, the plasma defrosted and was spun at ca. 3000 rpm for 5 minutes to remove any precipitate. The pH of the plasma was adjusted to pH 7.4 by careful addition of NaH2PO4 buffer.
Plasma stability was assessed by incubation of 10 μM of each compound prepared in Examples 1-5 with rat plasma, in duplicate, at ca. 37° C. with shaking. Each compound prepared in Examples 1-5 was also incubated at 10 μM in PBS as a control for compound heat stability. Aliquots were removed at 0, 0.5, 1 and 2 hours and stored at −20° C. until analysis.
For analysis, plasma samples were extracted in 1 part acetonitrile and isolation of the supernatant. Analysis of each compound prepared in Examples 1-5 in plasma extracts was conducted by an LC-MS method at each time interval and quantification was achieved by comparison of the response due to the sample to that of a three point standard curve. Appearance of the parent drug and the hydroxymetabolites were also monitored at each time interval. The % degradation following incubation at each time point was calculated by comparison of the parent concentration to that at 0 minutes.

[3] = Stability testing of prodrugs in human plasma; format: in vitro ADME; conditions: 10 μM, ca. 37° C.
Experimental: Pooled human plasma was obtained from Bioreclamation (East Meadow, N.Y.) by collection into sodium EDTA as the anticoagulant, and was stored at ca −20° C. prior to use. Prior to use, the plasma defrosted and was spun at ca. 3000 rpm for 5 minutes to remove any precipitate. The pH of the plasma was adjusted to pH 7.4 by careful addition of NaH2PO4 buffer.
Plasma stability was assessed by incubation of 10 μM of each compound prepared in Examples 1-5 with human plasma, in duplicate, at ca. 37° C. with shaking. Each compound prepared in Examples 1-5 was also incubated at 10 μM in PBS as a control for compound heat stability. Aliquots were removed at 0, 0.5, 1 and 2 hours and stored at −20° C. until analysis.
For analysis, plasma samples were extracted in 1 part acetonitrile and isolation of the supernatant. Analysis of each compound prepared in Examples 1-5 in plasma extracts was conducted by an LC-MS method at each time interval and quantification was achieved by comparison of the response due to the sample to that of a three point standard curve. Appearance of the parent drug the hydroxymetabolites were also monitored at each time interval. The % degradation following incubation at each time point was calculated by comparison of the parent concentration to that at 0 minutes.

CYP2D6 = CYP2D6 (Homo sapiens, UniProt P10635); experiment: Metabolic stability in the presence of CYP2D6 isozyme; format: in vitro ADME; parameters: purchased BD Gentest (Woburn, Mass.); conditions: 10 μm compound
Experimental: as §1, §2

[4] = Metabolic stability, microsomal incubations without inhibitor; format: in vitro ADME; conditions: 10 μM, 0.5 mg/mL microsomal protein
Experimental: (§3) The metabolic stability of each compound prepared in Examples 1-5 was assessed in microsomal preparations obtained from BD Gentest (Woburn, Mass.).
(§4) The metabolic stability of each compound prepared in Examples 1-5 was assessed in duplicate by incubation of 10 μM compound with 0.5 mg/mL microsomal protein, 1 mM in 0.1 M phosphate buffer, pH 7.4 in the presence and absence of a CYP3A4 inhibitor (ketoconazole). The reaction mixture was pre-incubated, in the absence of the microsomes, at ca. 37° C. for 5 minutes, followed by initiation of the incubation by the addition of microsomal protein and maintained at ca. 37° C. for a further 0, 30 and 60 minutes. After the appropriate incubation time, the mixtures were quenched by the addition of one volume of acetonitrile and the supernatant was isolated by centrifugation. Positive control incubations (7-ethoxycoumarin) were performed in the same manner as the compounds from Examples 1-5 and quenched after 0 and 30 minutes. In addition, negative control incubations were performed for 60 minutes in the absence of NADPH to assess chemical stability.
(§5) Analysis of supernatants from each time interval was conducted for each compound prepared in Examples 1-5 by LC-MS analysis. Quantification of the disappearance on the parent drug was achieved by comparison of the sample response to that of a suitable standard curve constructed in 0.1 M phosphate buffer, pH 7.4. The standard curve ranged between ≦1% up to ≧100% of the dosing concentration.
(§6) The % turnover following 60 minutes of incubation was calculated by comparison of the parent concentration to that at 0 minutes. The % degradation was calculated in the same manner from the negative control incubations. Appearance of the parent drug and the hydroxymetabolites were also monitored at each time interval.

[5] = Stability testing in simulated intestinal fluids; conditions: 10 μM
[6] = Metabolic stability, microsomal incubations with ketoconazole (CYP3A4 inhibitor); format: in vitro ADME; conditions: 10 μM, 0.5 mg/mL microsomal protein
Experimental: as §3, §4, §5, §6

[7] = phosphate pH 6, incubation time 0 min
[8] = phosphate pH 6, incubation time 30 min
[9] = phosphate pH 6, incubation time 60 min
[10] = phosphate pH 6, incubation time 120 min

T1 sequence (P08684 whole entry): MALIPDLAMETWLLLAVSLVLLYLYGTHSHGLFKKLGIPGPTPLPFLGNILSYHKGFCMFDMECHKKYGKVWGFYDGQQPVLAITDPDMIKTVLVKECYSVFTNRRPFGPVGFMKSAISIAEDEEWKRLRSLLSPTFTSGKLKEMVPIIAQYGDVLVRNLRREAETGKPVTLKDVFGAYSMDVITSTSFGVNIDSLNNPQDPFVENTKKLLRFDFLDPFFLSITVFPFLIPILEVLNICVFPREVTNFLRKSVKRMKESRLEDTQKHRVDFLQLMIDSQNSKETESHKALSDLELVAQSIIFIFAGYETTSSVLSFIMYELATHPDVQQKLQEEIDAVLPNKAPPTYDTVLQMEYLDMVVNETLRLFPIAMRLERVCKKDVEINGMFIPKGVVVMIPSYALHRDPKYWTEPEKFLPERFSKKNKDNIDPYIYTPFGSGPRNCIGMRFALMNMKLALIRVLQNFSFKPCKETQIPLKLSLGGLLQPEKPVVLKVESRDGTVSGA
Chain of CYP2D6 (P10635 whole entry): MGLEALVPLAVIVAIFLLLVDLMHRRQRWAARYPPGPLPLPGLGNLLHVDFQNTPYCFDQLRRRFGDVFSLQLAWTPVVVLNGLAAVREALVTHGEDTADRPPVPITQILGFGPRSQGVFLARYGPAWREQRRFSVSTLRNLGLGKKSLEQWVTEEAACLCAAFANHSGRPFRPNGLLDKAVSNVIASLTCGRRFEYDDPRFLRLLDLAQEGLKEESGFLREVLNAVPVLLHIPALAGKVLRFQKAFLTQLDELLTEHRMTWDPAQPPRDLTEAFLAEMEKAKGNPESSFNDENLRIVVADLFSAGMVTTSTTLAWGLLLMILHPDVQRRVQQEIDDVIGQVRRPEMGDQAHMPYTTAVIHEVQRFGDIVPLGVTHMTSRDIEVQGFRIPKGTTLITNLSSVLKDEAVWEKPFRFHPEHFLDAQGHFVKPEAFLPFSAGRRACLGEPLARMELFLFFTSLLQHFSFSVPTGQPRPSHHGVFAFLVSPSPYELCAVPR

| Structure (SMILES) | Loss of parent compound with CYP3A4 isozyme (%) (recombinant human CYP3A4; incubation time 0 min) | Loss of parent compound with CYP3A4 isozyme (%) (recombinant human CYP3A4; incubation time 30 min) | Loss of parent compound with CYP3A4 isozyme (%) (recombinant human CYP3A4; incubation time 60 min) | Loss of parent compound in simulated gastric fluid (%) ([1]; incubation time 0 min) | Loss of parent compound in simulated gastric fluid (%) ([1]; incubation time 30 min) | Loss of parent compound in rat plasma (%) ([2]; incubation time 0 min) | Loss of parent compound in rat plasma (%) ([2]; incubation time 30 min) | Loss of parent compound in rat plasma (%) ([2]; incubation time 60 min) | Loss of parent compound in rat plasma (%) ([2]; incubation time 120 min) | Loss of parent compound in human plasma (%) ([3]; incubation time 0 min) | Loss of parent compound in human plasma (%) ([3]; incubation time 30 min) | Loss of parent compound in human plasma (%) ([3]; incubation time 60 min) | Loss of parent compound in human plasma (%) ([3]; incubation time 120 min) | Loss of parent compound with CYP2D6 isozyme (%) (CYP2D6; incubation time 0 min) | Loss of parent compound with CYP2D6 isozyme (%) (CYP2D6; incubation time 30 min) | Loss of parent compound with no ketoconazole (%) ([4]; incubation time 30 min) | Loss of parent compound with no ketoconazole (%) ([4]; incubation time 60 min) | Loss of parent compound in simulated intestinal fluid (%) [5, 7] [%] | Loss of parent compound in simulated intestinal fluid (%) [5, 8] [%] | Loss of parent compound in simulated intestinal fluid (%) [5, 9] [%] | other results |
| --- | --- | --- | --- | --- | --- | --- | --- | --- | --- | --- | --- | --- | --- | --- | --- | --- | --- | --- | --- | --- | --- |
| CCCCCCCCOC(=O)N(C)CCCN1c2ccccc2CCc2ccccc21 [RIC-5d, [3-(10,11-Dihydro-dibenzo[b,f]azepin-5-yl)-propyl]-methyl-carbamic acid octyl ester] | 0.00 | 33.66 | 60.64 | 0.00 | 13.84 | 0.00 | −8.16 | 41.70 | 73.48 | 0.00 | −32.74 | −1.44 | 49.54 | 0.00 | 18.68 | 59.12 | 74.17 | 0.00 | 7.73 | −8.72 | Loss of parent compound in simulated intestinal fluid (%) [5, 10]: 4.23%; Loss of parent compound with ketoconazole (%) ([6]; incubation time 30 min): 15.18%; Loss of parent compound with ketoconazole (%) ([6]; incubation time 60 min): 55.88% |
| CCCOC(=O)N(C)CCCN1c2ccccc2CCc2ccccc21 [RIC-5b, [3-(10,11-Dihydro-dibenzo[b,f]azepin-5-yl)-propyl]-methyl-carbamic acid propyl ester] | 0.00 | 92.32 | 95.20 | 0.00 | 58.72 | 0.00 | 7.17 | 8.34 | 23.42 | 0.00 | 7.15 | 6.85 | 21.06 | 0.00 | 19.21 | 64.76 | 82.29 | 0.00 | 6.73 | 13.57 | Loss of parent compound in simulated gastric fluid (%) ([1]; incubation time 60 min): 26.67%; Loss of parent compound in simulated gastric fluid (%) ([1]; incubation time 120 min): 94.37%; Loss of parent compound with CYP2D6 isozyme (%) (CYP2D6; incubation time 60 min): 28.01%; Loss of parent compound in simulated intestinal fluid (%) [5, 10]: 25.61%; Loss of parent compound with ketoconazole (%) ([6]; incubation time 30 min): 31.69%; Loss of parent compound with ketoconazole (%) ([6]; incubation time 60 min): 50.21% |
| CC(C)COC(=O)N(C)CCCN1c2ccccc2CCc2ccccc21 [RIC-5c, [3-(10,11-Dihydro-dibenzo[b,f]azepin-5-yl)-propyl]-methyl-carbamic acid isobutyl ester] | 0.00 | 72.07 | 90.69 | 0.00 | 70.64 | 0.00 | −14.69 | −2.88 | 33.40 | 0.00 | 5.11 | −1.48 | 25.82 | 0.00 | 43.71 | 54.01 | 76.36 | 0.00 | 1.05 | 12.68 | Loss of parent compound in simulated gastric fluid (%) ([1]; incubation time 60 min): 82.77%; Loss of parent compound in simulated gastric fluid (%) ([1]; incubation time 120 min): 98.11%; Loss of parent compound with CYP2D6 isozyme (%) (CYP2D6; incubation time 60 min): 70.07%; Loss of parent compound in simulated intestinal fluid (%) [5, 10]: 21.78%; Loss of parent compound with ketoconazole (%) ([6]; incubation time 30 min): 6.36%; Loss of parent compound with ketoconazole (%) ([6]; incubation time 60 min): 19.49% |
